Like-named read-outs stand apart in the source and are kept apart here.
Assays:
SARS-CoV-2-Nluc = assay: microbe, parasite or virus in culture; type: cell-based
[1] = data from literature; ref [51]-[68]; cited from earlier work
in vitro = settings: human
[2] = human exposures in the clinic, approved dosing schedules, ref [51]-[68], cited from earlier work; for Cmax: read-out: Exposure Cmax
[3] = Severe acute respiratory syndrome coronavirus 2, 48 h
[4] = Severe acute respiratory syndrome coronavirus 2, read-out: EC50 (µM) Replicate 1
[5] = Severe acute respiratory syndrome coronavirus 2, read-out: EC50 (µM) Replicate 2

Row | Structure (SMILES) | EC50 (SARS-CoV-2-Nluc; [3]) [µM] | Plasma protein binding [1] | CC50 (in vitro; CC50) [µM] | Selectivity index (SI) = CC50/EC50 (SARS-CoV-2-Nluc) | EC50 (SARS-CoV-2-Nluc; [4]) [µM] | EC50 (SARS-CoV-2-Nluc; [5]) [µM] | Exposure Cmin [2] [µM] | CC50 (in vitro; CC50 (µM) Replicate 1) [µM] | CC50 (in vitro; CC50 (µM) Replicate 2) [µM] | Cmax [2] [µM] | EC50 (SARS-CoV-2-Nluc; Severe acute respiratory syndrome coronavirus 2, read-out: projected protein adjusted potency (paEC50)) [µM]
1 | O=C(NCc1c(F)cc(F)cc1F)c1cn2c(c(O)c1=O)C(=O)N1[C@H]3CC[C@H](C3)O[C@@H]1C2 [Bictegravir] | > 10 | >99% | > 50 | – | – | – | – | – | – | – | –
2 | O=C1Nc2ccc(Cl)cc2[C@@](C#CC2CC2)(C(F)(F)F)O1 [Efavirenz] | > 9.6 | 99.5–99.8% | 37.6 ± 10.7 | <3.9 | 9.6 | > 10 | 5.6 | 45.1 | 30 | – | –
3 | Nc1nc(=O)n([C@@H]2CS[C@H](CO)O2)cc1F [Emtricitabine (FTC), Emtricitabine] | > 10 | 4% | > 50 | – | > 10 | > 10 | – | > 50 | > 50 | 7.9 | –
4 | Cc1cccc(C)c1OCC(=O)N[C@@H](Cc1ccccc1)[C@@H](O)C[C@H](Cc1ccccc1)NC(=O)[C@H](C(C)C)N1CCCNC1=O [Lopinavir] | 9 ± 0.42 | 98–99% | 31.5 ± 2.5 | – | 9.3 | 8.7 | – | 29.8 | 33.3 | – | –
5 | Cc1c(O)cccc1C(=O)N[C@@H](CSc1ccccc1)[C@H](O)CN1C[C@H]2CCCC[C@H]2C[C@H]1C(=O)NC(C)(C)C [Nelfinavir] | 0.77 ± 0.32 | >98% | 12 ± 1.3 | 15.7 | 0.542 | 0.993 | 2.6 | 11.1 | 13 | 8.3 | ~30
6 | Cc1cc(/C=C/C#N)cc(C)c1Nc1ccnc(Nc2ccc(C#N)cc2)n1 [Rilpivirine] | 7.8 ± 1.04 | 99.7% | 14.6 ± 1.6 | – | 7.06 | 8.53 | 0.30 | 13.5 | 15.8 | 0.83 | –
7 | CC(C)OC(=O)[C@H](C)N[P@](=O)(CO[C@H](C)Cn1cnc2c(N)ncnc21)Oc1ccccc1 [Tenofovir alafenamide (TAF), Tenofovir alafenamide] | > 10 | 80% | > 50 | – | > 10 | > 10 | – | > 50 | > 50 | 0.4 | –
8 | CCC[C@@]1(CCc2ccccc2)CC(O)=C([C@H](CC)c2cccc(NS(=O)(=O)c3ccc(C(F)(F)F)cn3)c2)C(=O)O1 [Tipranavir] | 8.65 ± 0.16 | 99.9% | 28.4 ± 0.5 | 3.3 | 8.53 | 8.76 | 30.8 | 28.8 | 28.1 | 130 | –

Reference: article PMC7567097, “A nanoluciferase SARS-CoV-2 for rapid neutralization testing and screening of anti-infective drugs for COVID-19” (Nature Communications, 2020)
